Assays:
[1] = tested on: human liver cancer cells HepG2; experiment: MTT assay, tumor cell growth inhibition, HepG2; format: cell-based; conditions: 48 hours
Excerpt: MTT Assay—Inhibitory Effect of 6-dithio-substituted-2′-deoxyguanosine Derivatives on Tumor Cell Growth
We measured the tumor cell growth inhibitory activity of candidate compounds by MTT assay. Human tumor cells in logarithmic growth phase were digested with 0.25% pancreatin for a certain time, centrifuged, re-suspended and counted with a blood cell counting plate to prepare a cell suspension, and the cell suspension was adjusted to 1.0×10^4-1×10^5 cells/mL. The cell suspension was inoculated into a 96-well culture plate, 100 μL per well, and cultured in an incubator with saturated humidity, 37° C. and 5% CO2 for 24 hours until the cells completely adhered to the wall. The test compound was diluted to the required concentration with a complete medium, the complete medium of the 96-well culture plate inoculated with human tumor cells was sucked out, a medicament-containing medium was added, 100 μL per well, the final concentration of DMSO was less than 0.1%, and the culture plate was put in an incubator for 48 hours. 10 μl of MTT was added to each well of the 96-well plate, and the culture was continued for 4 h. The culture was stopped and the culture solution in the well was carefully sucked off. 150 μL DMSO was added to each well, and shaken at a low speed for 10 min on a shaking table, so that the crystal was fully dissolved. The absorbance of each well was measured at OD 570 nm of an enzyme-linked immunosorbent assay instrument. At the same time, zeroing wells (the culture medium, MTT, dimethyl sulfoxide) and control wells (cells, a drug dissolution medium with the same concentration, a culture solution, MTT, dimethyl sulfoxide) were set up, and the cell growth inhibitory activity was calculated with the corresponding solvents as the control. 3-6 multiple wells in each group were set up with repetition of several times. Cell viability of control=(Adrug group−Azeroing well)/(Acontrol well−Azeroing well)*100%. Drawing was drawn, the data were fitted into a concentration response curve with a variable slope, and IC50 value was calculated from the curve.

[2] = Blood biochemical analysis and HE staining of tissues in HCT116 tumor-bearing nude mice; format: in vivo; conditions: tail vein once every two days, 12 times, blood 48 hours after the last treatment
Description: We took human colon cancer cell line HCT116 as the research object, and established a subcutaneous transplanted tumor model of human colon cancer in 32 immunodeficient nude mice. The 24th generation HCT116 cells in logarithmic growth phase were digested with pancreatin to prepare a single-cell suspension, and 1×10^7 cells were inoculated subcutaneously in the right armpit of male nude mice about 5 weeks old. After inoculation, cyclophosphamide (100 mg/kg) was injected intraperitoneally for two consecutive days. […] On the 20th day after colon cancer cell HCT116 was implanted subcutaneously, nude mice were divided into 7 groups by a random number table method, including a test drug group, a positive control group and a blank control group. Specifically, group A: the compound A was administrated; Group B: the compound B was administrated; Group C: the compound C was administrated; Group D: the compound D was administrated; Group E: the compound 6-thio-DG was administrated; Group F: the compound PX-12 was administrated; Group G: blank group, without administration of any compound. Except group C with 3 rats and group G with 4 rats, all other 5 groups had 5 rats, they mice were labeled and injected by tail vein once every two days for 24 days, 12 times, with the dose of compound A being 2 mg/kg for the first 8 times and 10 mg/kg for the last 4 times, and the dosages of other drugs being the same molar weights. The tumor volume was calculated by taking the length of the tumor as the longest diameter and the width as the corresponding vertical diameter, and the tumor volume V=(length×width^2) mm^3/2. 48 hours after the last treatment, blood was taken from the eyes, and then the animals were killed. Blood was centrifuged to get the supernatant, and then blood biochemical analysis was performed. Paraffin embedded sections of fixed tissues were stained with HE. The tumor mass in a frozen tissue was sectioned in a frozen state, and then stained by DAPI and TUNEL to judge the apoptosis of the tumor tissue in nude mice.

TrxR/Trx-1 = molecular target: T1, TrxR/Trx-1 (Homo sapiens, UniProt P10599); experiment: Ellman test, inhibition of TrxR/Trx-1 activity; format: biochemical; conditions: read-out: TrxR/Trx-1 IC50
T1 sequence (P10599 2-105 limits assumed): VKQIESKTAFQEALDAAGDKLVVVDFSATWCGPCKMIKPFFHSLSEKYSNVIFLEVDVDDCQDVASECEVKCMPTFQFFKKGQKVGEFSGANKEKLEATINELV
Excerpt: Ellman Test—Inhibitory Effect of 6-dithio-substituted-2′-deoxyguanosine Derivative Analogues on TrxR/Trx-1 Activity
A TrxR/TR experiment based on the Ellman reaction was used to determine the inhibitory activity of candidate compounds. Ellman reaction is that 5,5′-dithiobis (2-nitrobenzoic acid) (DTNB) reacts with sulfhydryl (—SH) to form a yellow substance with absorption at 412 nm. The increase of absorption can be equivalent to the decrease of NADPH mediated by TrxR, thus further judging the activity of TrxR/Trx-1. All experiments were carried out on 96-well plates. Before the start of the enzyme reaction, five groups of corresponding test compound stock solutions with different concentrations were prepared. In the TrxR/Trx-1 reaction, a total volume per well was 60 μL, including 100 mM HEPES, 5 mM EDTA (HE buffer, pH 7.5), 1 mM NADPH, 1.0 μM TrxR, 0.8 μM Trx-1, 2.5 mg/mL bovine insulin and the required concentration of compounds to be tested. No compound to be tested was added to the control group. No compound to be tested, TrxR and Trx-1 were added in the blank group. The plate was shaken on an oscillator for 30 seconds to fully mix the reactants. After incubation at 37° C. for 30 min, 100 μL of the prepared mixture containing 6 M guanidine hydrochloride, 50 mm Tris and 10 mm DTNB was added to terminate the reaction. After 15 minutes of incubation, the absorbance was measured at 412 nm. Finally, TrxR/Trx-1 activity %=(Atest−Akb)/(Acontrol−Akb), that is, the relative percentage of TrxR/Trx-1 activity was the activity inhibited by adding 2′-deoxyguanosine derivatives relative to the activity without 2′-deoxyguanosine derivatives. The data were fitted into a concentration response curve with a variable slope, and the IC50 value was calculated from the curve.

[3] = tested on: human melanoma cell A375 tumor; experiment: Human melanoma cell A375 tumor-bearing mouse model, antitumor effect; format: in vivo, nude mice; conditions: compound D 10 mg/kg, DTIC 20.4 mg/kg (4 times molar), 6-thio-dG+PX12 at twice the molar amount
Description: 2) Human Melanoma Cell A375 Tumor-Bearing Mouse Model
We further studied the inhibitory effect of the compound D on human malignant melanoma by using A375 tumor-bearing mouse model. The method was basically the same as above. Dacarbazine (DTIC) is the first-line drug for melanoma. The designed administration groups were: compound D 10 mg/kg group; 6-thio-dG+PX12 combined drug group (the dose is equivalent to twice the molar amount of the compound D); DTIC 20.4 mg/kg group (the dose is equivalent to 4 times the molar amount of the compound D) and blank solvent group.

CC(C)SSc1nc(N)nc2c1ncn2[C@H]1C[C@H](O)[C@@H](CO)O1 [D, 6-(isopropyldithio)-2′-deoxyguanosine] showed an IC50 [1] of less than 10 µM, an Alanine aminotransferase [2] of 28.2 U/L and an Albumin [2] of 25.0 g/L. It also gave an Alkaline phosphatase [2] of 31.5 U/L, an Aspartate aminotransferase [2] of 122.2 U/L and a BUN [2] of 8.80 mmol/L. It also gave a Chloride ion [2] of 115.3 mmol/L, a Creatine kinase [2] of 1597 U/L and a Creatinine [2] of -3.0 µmol/L. The Glucose [2] was 3.51 mmol/L, the Potassium ion [2] was 6.43 mmol/L and the Sodium ion [2] was 157.5 mmol/L. It also gave a Total bilirubin [2] of -1.00 µmol/L, a Total cholesterol [2] of 3.21 mmol/L and a Total protein [2] of 54.2 g/L. For the same compound, the Triglyceride [2] was 0.70 mmol/L, the IC50 (TrxR/Trx-1) was 4.26 µM and the “Antitumor effect (tumor volume) compared with controls” value [3] was “significantly higher than that of DITC”.
